Experimental data from patent US9145377B2, “G-quadruplex stabilising agent” (University College London, priority 2011, dated 2015).

What was measured:
[1] = test system: renal carcinoma cells; test: Growth inhibition, sulforhodamine B (SRB) assay, 96 h exposure; assay type: cell-based, human; details: normoxia (20% oxygen)
From the text: (§1) A498 human renal, 786-0 human renal, MCF-7 human breast, Mia-Pa-Ca human pancreatic, Panc-1 human pancreatic, and PC-3 human prostate cancer cells were obtained from American Type Culture Collection (Rockville, Md.). Human RCC4 and RCC4/VHL cells were obtained from Professor P. Maxwell (University College London, UK). RCC4 cells lack pVHL therefore express constitutively high levels of HIF-1α. These cells were stably transfected with a wild-type pVHL gene, as previously described. All cells were grown in humidified 95% air, 5% CO2 at 37° C. in Dulbecco's modified Eagle's medium (DMEM), RPMI or MEM medium supplemented with 10% fetal bovine serum (FBS) and 2 mM L-Glutamine according to advice from ATCC (all reagents were obtained from Gibco, Invitrogen, UK). HIF-1α and HIF-2α antibodies were obtained from BD Transduction Labs, AKT antibody was obtained from Cell Signalling Biotechnology, and lamin NC, actin, HIF-1β, HSP-90, and Raf-1 antibodies were from Santa Cruz Biotechnology.

[2] = test system: HIF-1α; test: Western blotting for HIF-1α protein in RCC4 / RCC4VHL cells; assay type: cell-based, human
From the text: as §1
(§2) Culture flasks were incubated for various times at 37° C. in humidified air, 5% CO2 (normoxia) or 1% O2, 5% CO2, 94% N2 (hypoxia) using an InVivo Hypoxia Workstation 400 with a Ruskin hypoxic gas mixer (Biotrace International). After incubation, cells were washed twice with cold PBS equilibrated with the same gas mixture. In some studies, medium was removed at the end of incubation and stored at […] for measurement of vascular endothelial growth factor (VEGF) levels.
(§3) Western blotting was performed as described previously. Blots were quantified using ImageQuant software (Molecular Dynamics). Nuclear and cytoplasmic extracts were prepared using NE-PER Nuclear and Cytoplasmic Extraction Reagents (Pierce Biotechnology).
Cells were then lysed and Western blotting was performed probing for HIF-1α, HIF-2α, HIF-1β, or lamin NC (as a loading control).

[3] = test system: HIF-2α; test: Western blotting for HIF-2α protein in 786-0 cells; assay type: cell-based, human; details: hypoxia (1% oxygen), 4 h dose course
From the text: as §1
(§4) Culture flasks were incubated for various times at 37° C. in humidified air, 5% CO2 (normoxia) or 1% O2, 5% CO2, 94% N2 (hypoxia) using an InVivo Hypoxia Workstation 400 with a Ruskin hypoxic gas mixer (Biotrace International). […]
(§5) Western blotting was performed as described previously. Blots were quantified using ImageQuant software (Molecular Dynamics). […]

[4] = test system: HIF-1β; test: Western blotting for HIF-1β protein; assay type: cell-based, human; details: RCC4 or 786-0 cells, 4 h
From the text: as §1, §4, §5

[5] = test system: HIF-1 transactivation; test: Luciferase reporter assay (hypoxia response element, HRE) in RCC4 cells; assay type: cell-based, human; details: normoxia or hypoxia (1% oxygen), 4 h
Description: A pGL3 firefly luciferase reporter plasmid containing the phosphoglycerate kinase hypoxia-responsive element was supplied by Professor P. Maxwell (University College London, UK) [1]. The empty pGL3 control plasmid and the pRL-CMV Renilla luciferase plasmids were obtained from Promega. […] Firefly and Renilla luciferase activities were measured using the Dual Luciferase Reporter Assay System (Promega) according to the manufacturer's instructions.
In FIG. 6(A) RCC4 cells were co-transfected with either a vector expressing luciferase under the control of multiple copies of the hypoxia response element (HRE; kindly donated by G. Mellillo, NCI) or an empty vector control (pGL3) in addition to a vector expressing renilla luciferase (to control for transfection efficiency). […] Luciferase activity was then measured using the Promega Dual Luciferase assay Kit and results are expressed as a percentage of the activity of untreated, normoxic cells.

[6] = test system: VEGF; test: VEGF measurement in cell culture medium by ELISA; assay type: cell-based, human; details: RCC4 cells, CL67 5×IC50 or dose indicated, 4 h or time indicated
Description: as §2

[7] = test system: HSP-90; test: Western blotting for HSP-90 in RCC4 and RCC4VHL cells; assay type: cell-based, human; details: CL67 5×IC50, normoxia (20% oxygen)
From the text: as §1, §3
(§6) Cells were then lysed and Western blotting was performed. Probing for HSP-90, Raf-1, AKT and actin (as a loading control).

[8] = test system: Raf-1; test: Western blotting for Raf-1 in RCC4 and RCC4VHL cells; assay type: cell-based, human; details: CL67 5×IC50, normoxia (20% oxygen)
From the text: as §1, §3, §6

[9] = test system: AKT; test: Western blotting for AKT in RCC4 and RCC4VHL cells; assay type: cell-based, human; details: CL67 5×IC50, normoxia (20% oxygen)
From the text: as §1, §3, §6

[10] = test system: HIF-1α mRNA; test: Reverse transcriptase PCR (qRT-PCR) of HIF-1α transcripts in RCC4 cells; assay type: cell-based, human; details: 4 h, normoxia
Description: Total RNA was isolated from approximately 10^7 cells using the RNeasy kit (Qiagen, Crawley, UK) according to the manufacturer's protocol. HIF-1α transcripts were quantified using two-step, quantitative real time PCR (qRTPCR). First-strand cDNA synthesis was performed for each sample with a Protoscript M-MuLV Taq RT-PCR kit (New England Biolabs, MA, USA) using 1 μg total RNA and oligo-dT primers. qPCR was performed using Stratagene Brilliant III SYBR Green master mix in a Stratagene MX-3000P instrument (Agilent, Tex., USA) according to the manufacturer's instructions using 2 ng input cDNA and primers at 300 nM. […] Samples were normalised to β-actin. Differences in PCR efficiency were normalised using relative standard curves of cDNA pooled from all samples. P-values were determined for 2000 randomisations.
Cells were then lysed and RNA was prepared using a Qiagen RNeasy kit. RT PCR was then performed to determine relative levels of HIF-1α mRNA in each sample.

[11] = Solubility limit in aqueous media (dose ranging, sterile dH2O); assay type: physicochemical; details: dissolved in sterile dH2O, intra-peritoneal dose ranging in CD1 mice
Description: A dose range assay was performed in female CD1 mice, with an initial mean weight of 25 g (Harlan UK Ltd,).

In the case of CCN(CC)CC(=O)Nc1cccc(-n2cc(-c3ccc4ccc(-c5cn(-c6cccc(NC(=O)CN(CC)CC)c6)nn5)cc4c3)nn2)c1 [CL67, N,N′-((4,4′-(Naphthalene-2,7-diyl)bis(1H-1,2,3-triazole-4,1-diyl))bis(3,1-phenylene))bis(2-(diethylamino)acetamide)], the “sensitivity of renal cancer cells to inhibition of cell growth compared to other cancer cell lines (breast, pancreatic, prostate)” value [1] is reported as “enhanced sensitivity”, the “HIF-1α protein (Western blot) in RCC4VHL cells” value ([2]; RCC4VHL cells (stably transfected with pVHL), 0, 1, 5 or 10×IC50, normoxia or hypoxia (1% oxygen)) is reported as “inhibited” and the “HIF-1α protein (Western blot) in RCC4 cells (lacking pVHL)” value ([2]; RCC4 cells, 0, 1, 5 or 10×IC50, normoxia (20% oxygen) or hypoxia (1% oxygen)) is reported as “inhibited”. For the same compound, the “HIF-1α protein level (Western blot)” value ([2]; RCC4 cells, normoxia, 4 h dose course, time course at 5×IC50) was “inhibited”, the “HIF-2α protein level (Western blot)” value [3] was “inhibited” and the “HIF-1β protein level (Western blot)” value [4] was “did not affect”. For the same compound, the “HIF-1 transactivation (HRE luciferase activity)” value [5] was “inhibited”, the “VEGF levels in medium (ELISA)” value [6] was “inhibited” and the “expression of HSP90 (Western blot)” value [7] was “No differences”. The “expression of Raf-1 (Western blot)” value [8] was “No differences”, the “expression of AKT (Western blot)” value [9] was “No differences” and the “relative expression of HIF-1α mRNA compared to untreated control cells (RT PCR)” value [10] was “inhibits formation of HIF-1α mRNA”. For the same compound, the “solubility limit of the drug in aqueous media” value [11] was 10 mg/kg and the melting point was 97 to 99 °C.
